Entries after “also recorded” stand apart in the source; their conditions may differ. Positions of bridges follow the written chain, without caps; N, C: chain ends. No end group written: not given here.
Assays:
[1] = tested on: HUVEC (Human Umbilical Vein Endothelial Cells); test: HUVEC proliferation (crystal violet); format: cell-based; conditions: 40 μM, 48 h, 5,000 HUVEC per well in ECGM, 560 nm, means ± SD (n = 16), N = 3
Description: Figure 1. […] 5,000 HUVEC were seeded in a 96 well plate and incubated with or without 40 μM NC1(XIX) or F4 for 48 hours. After washing, cells were fixed with glutaraldehyde and stained with crystal violet. Dye was eluted with 10% acetic acid and absorbance was read at 560 nm. The values are the means ± SD (n = 16). The experiment was repeated three times (N = 3) and the results presented in the figure correspond to the more representative one
(§1) Human Umbilical Vein Endothelial Cells (HUVEC) (Ref C-12253) were purchased from Promocell. They were grown in Endothelial Cell Growth Medium (ECGM) (Promocell, Ref C-22110: Basal medium supplemented with 0.02 mL/mL Fetal Calf Serum, 0.004 mL/mL Endothelial Cell Growth Supplement, 0.1 ng/mL Epidermal Growth Factor (recombinant human), 1 ng/mL Basic Fibroblast Growth Factor (recombinant human), 90 μg/mL Heparin, 1 μg/mL Hydrocortisone) at +37°C in a humid atmosphere containing 5% CO2. PromoCell Detach Kit was used for the detachment of HUVEC according to the manufacturer’s protocols (Promocell, ref C-41200).
For cell proliferation measurement, 5,000 HUVEC were seeded in 96-well plates and cultivated in ECGM with or without 40 μM NC1(XIX) or F4 at +37°C in a humid atmosphere containing 5% CO2. […] Dye was eluted with 10% (v/v) acetic acid and absorbance was read at 560 nm.

[2] = tested on: αvβ3 integrin; test: Solid phase assay, direct binding to αvβ3; parameters: species or system human; conditions: solid phase assays
Excerpt: Figure 5. F4 directly binds to αvβ3 and α5β1 integrins. Direct interaction between αvβ3 or α5β1 integrin and F4 was studied using solid phase assays as described in the material and method section. The F4 peptide was biotinylated to allow its detection using the streptavidin-peroxidase complex. Different conditions were used. (a-b) The amounts of coated αvβ3 (a) or α5β1 integrin (b) were increased while biotinylated F4 peptide was kept constant. (c-d) The concentration of biotinylated F4 peptide was increased while coated amounts of αvβ3 (c) or α5β1 (d) integrins were kept constant. (e-f) Competitive assays were performed using increasing concentrations of F4 peptide while biotinylated-F4 peptide and αvβ3 (e) or α5β1 (f) integrins were kept constant. […]
(§2) Wells of a 96-well plate were coated with α5β1 (ref. 3230-A5-050, R&D systems) and/or αvβ3 integrin (ref. 3050-AV-050, R&D systems) at different concentrations ranging from 26 × 10^−7 mol/L to 0.1 × 10^−7 mol/L (100 μL per well in PBS). […] The intensity of the yellow coloration was measured at 450 nm with an LB940 spectrophotometer (Berthold Technologies).
The optimum integrin amount for the coating was determined using the above protocol and the optimum ligand concentration was sought using different dilutions of the biotinylated-F4 peptide ranging from 20.8 × 10^−4 to 0.16 × 10^−4 mol/L.

[3] = tested on: HUVEC; test: Capillary (pseudo-)tube formation on Matrigel; format: cell-based, human
Description: Figure 2. NC1(XIX) and F4 inhibit endothelial cell in vitro pseudotube formation. 50,000 HUVEC were seeded in Matrigel coated well of a 48 well-plate and incubated with or without 40 μM NC1(XIX) or F4. Pseudotube formation was observed and photographed under an inverted microscope after 8 hours (a). The number of segments, of nodes and the total length of pseudotubes were quantified by the ImageJ software, using the Angiogenesis Analyzer tool (b). The values are the means ± SD (n = 8 replicates). *** p < 0.001). The experiment was repeated three times (N = 3)
as §1
The ability of HUVEC to form pseudo-tubes was investigated on Matrigel (Corning, ref 356237). Matrigel was loaded into 48-well plate and allowed to polymerize at +37°C for 2 h. 50,000 HUVEC suspended in Basal media supplemented with 0.004 mL/mL Endothelial Cell Growth Supplement, 90 μg/mL Heparin, 1 μg/mL Hydrocortisone with or without 40 μM NC1(XIX) or F4 were seeded into each well. Plates were incubated at +37°C in a humid atmosphere containing 5% CO2, 95% for 8 h. The formation of the capillary network was then imaged under an inverted light microscope. Quantitative evaluation of the capillary network was performed using the angiogenesis analyzer tool of ImageJ analysis software. The number of nodes, of segments and the total length of the capillary network were determined.

[4] = tested on: αvβ3 integrin; test: Solid phase competition assay with biotinylated-F4, αvβ3; format: binding, human; conditions: unlabeled F4, molar ratio 1/0 to 1/125, integrin coated at 26 × 10^−7 mol/L, 90 min, room temperature, N = 2
Excerpt: Figure 5. F4 directly binds to αvβ3 and α5β1 integrins. Direct interaction between αvβ3 or α5β1 integrin and F4 was studied using solid phase assays as described in the material and method section. The F4 peptide was biotinylated to allow its detection using the streptavidin-peroxidase complex. Different conditions were used. (a-b) The amounts of coated αvβ3 (a) or α5β1 integrin (b) were increased while biotinylated F4 peptide was kept constant. (c-d) The concentration of biotinylated F4 peptide was increased while coated amounts of αvβ3 (c) or α5β1 (d) integrins were kept constant. (e-f) Competitive assays were performed using increasing concentrations of F4 peptide while biotinylated-F4 peptide and αvβ3 (e) or α5β1 (f) integrins were kept constant. The solid phase assays were repeated twice (N = 2; n = 2)
as §2, with “PBS). The 96-well plate was left overnight at room temperature. The coating was then blocked with TBS containing 5% nonfat dry milk, 1 mM MgCl2 and 1 mM CaCl2 for 2 h at room temperature.” for “PBS).”, “Technologies). […]” for “Technologies).”

[5] = tested on: tumor cell; parameters: method as in PMID 26621838; conditions: in vitro; ref [36]; cited from earlier work
[6] = 40 µM, 8 h, 50,000 HUVEC on Matrigel, ImageJ Angiogenesis Analyzer, p < 0.001 for NC1(XIX) and F4, n = 8, N = 3

## CNPEDCLYPVSHAHQR (disulfide 1-6 (inferred)) [F4, collagen XIX-derived peptide, released by plasmin from type XIX collagen]
[1]
  effect on HUVEC proliferation: not significantly modified; also recorded: does not affect endothelial cell proliferation
[2]
  direct binding to αvβ3 (conclusion): binds to both αvβ3 and α5β1 integrins in a direct manner
[3]; [6]
  decrease of the number of nodes vs control: 77%
  decrease of the number of segments vs control: 52%
  decrease of the total length of capillary tubes vs control: 49%
[3]; 40 µM, 8 h, HUVEC on Matrigel
  inhibition of capillary network, F4 compared with NC1(XIX): stronger inhibition of the number of nodes, segments and of the total length of capillary network than NC1(XIX) peptide
[3]; 40 µM, 8 h, HUVEC on Matrigel, compared to control
  inhibition of pseudo-tube formation: strongly inhibited pseudo-tube formation
[3]; endothelial cells on Matrigel (abstract)
  inhibition of VEGF-induced pseudo-tube formation: inhibited VEGF-induced pseudo-tube formation
[3]; in vitro
  anti-angiogenic effect on pseudo-tube formation, F4 compared with NC1(XIX) (discussion): even greater than the whole NC1(XIX) domain
[4]
  competition with biotinylated-F4 binding to αvβ3: decreased consequently
[5]
  tumor cell migration: inhibits in vitro tumor cell migration
